Source: patent US9492460B2, “Carbazole compounds useful as bromodomain inhibitors” (Bristol-Myers Squibb Company, priority 2013, dated 2016)

These compounds were tested against T1, bromodomain BRD4 (44-168), BRD4 (333-460), and BRD4 (1-477 or 44-460) (Homo sapiens, UniProt O60885) (assay: Time Resolved Fluorescence Resonance Energy Transfer (TR-FRET) binding assay). Conditions: one of the FRET assays described.
T1 construct: BRD4(44-168), BRD4(333-460), BRD4(44-460), BRD4(1-477), O60885-1; fused on or other part: N-terminal BirA biotinylation motif, biotinylated; The TVMV-cleavable His6 tag is removed, except in some BRD4(44-460) runs detected with anti-His terbium cryptate
With `CNC(=O)c1cc(-c2c(C)noc2C)cc2c1c1cc(C(=O)N3CC(F)C3)ccc1n2Cc1ccc(C#N)cc1` [Example 108] the IC50 was < 50 nM. For `CCNC(=O)c1cc(-c2c(C)noc2C)cc2c1c1cc(C(=O)N3CC(F)C3)ccc1n2Cc1ccc(F)cc1` [Example 126, 2-(3,5-dimethyl-4-isoxazolyl)-N-ethyl-6-((3-fluoro-1-azetidinyl)carbonyl)-9-(4-fluorobenzyl)-9H-carbazole-4-carboxamide], the IC50 was < 50 nM. `COC(=O)c1ccc2c3c(C(N)=O)cc(-c4c(C)noc4C)cc3n(Cc3ccccc3)c2c1` [Example 183, Methyl 9-benzyl-5-carbamoyl-7-(3,5-dimethyl-4-isoxazolyl)-9H-carbazole-2-carboxylate] was tested, and the IC50 was < 50 nM. In the case of `Cc1noc(C)c1-c1cc(C(N)=O)c2c3cc(NCCO)ccc3n(Cc3ccccc3)c2c1` [Example 137, 9-benzyl-2-(3,5-dimethyl-4-isoxazolyl)-6-((2-hydroxyethyl)amino)-9H-carbazole-4-carboxamide], the IC50 is reported as < 50 nM. For `CNC(=O)c1cc(-c2c(C)noc2C)cc2c1c1cc(C(=O)N3CC(F)C3)ccc1n2Cc1ccc(Cl)c(F)c1` [Example 109], the IC50 was < 50 nM. With `Cc1noc(C)c1-c1cc(C(N)=O)c2c3cc(N(CCO)CCO)ccc3n(Cc3ccccc3)c2c1` [Example 140, 9-benzyl-6-(bis(2-hydroxyethyl)amino)-2-(3,5-dimethyl-4-isoxazolyl)-9H-carbazole-4-carboxamide] the IC50 was < 50 nM. `Cc1noc(C)c1-c1cc(C(N)=O)c2c3cc(N4CC(C)(C)COC4=O)ccc3n(Cc3ccccc3)c2c1` [Example 160, 9-benzyl-2-(3,5-dimethyl-4-isoxazolyl)-6-(5,5-dimethyl-2-oxo-1,3-oxazinan-3-yl)-9H-carbazole-4-carboxamide] was tested, and the IC50 was < 50 nM. For `CCn1c2ccc(C(=O)N3C[C@@H](C)O[C@@H](C)C3)cc2c2ccc(-c3c(C)noc3C)cc21` [Example 2, 2-(3,5-dimethyl-4-isoxazolyl)-6-((cis-2,6-dimethyl-4-morpholinyl)carbonyl)-9-ethyl-9H-carbazole], the IC50 was < 500 nM. In the case of `Cc1noc(C)c1-c1cc(C(N)=O)c2c3cc(C(=O)N4CC(C)OC(C)C4)ccc3n(Cc3ncco3)c2c1` (stereo not drawn) [Example 29], the IC50 is reported as < 500 nM. With `COC(=O)c1ccc2c3c(C#N)cc(-c4c(C)noc4C)cc3n(Cc3ccccc3)c2c1` [Example 182, Methyl 9-benzyl-5-cyano-7-(3,5-dimethyl-4-isoxazolyl)-9H-carbazole-2-carboxylate] the IC50 was < 7500 nM. For `Cc1noc(C)c1-c1cc(C(N)=O)c2c3ccc(C(C)(C)O)cc3n(C[C@@]3(F)C[C@@H]4CC[C@H]3O4)c2c1` (relative stereo) [Example 225, rel-2-(dimethyl-1,2-oxazol-4-yl)-9-{[(1R,2S,4S)-2-fluoro-7-oxabicyclo[2.2.1]heptan-2-yl]methyl}-7-(2-hydroxypropan-2-yl)-9H-carbazole-4-carboxamide], the IC50 was < 50 nM. With `CNC(=O)c1cc(-c2c(C)noc2C)cc2[nH]c3ccc(C(=O)N4CC(F)C4)cc3c12` [Example 101, 2-(3,5-dimethyl-4-isoxazolyl)-6-((3-fluoro-1-azetidinyl)carbonyl)-N-methyl-9H-carbazole-4-carboxamide] the IC50 was < 500 nM. For `Cc1oncc1-c1cc(C(N)=O)c2c3cc(C(=O)N4CCOCC4)ccc3n(Cc3ccc(F)cc3)c2c1` [Example 123, 9-(4-fluorobenzyl)-2-(5-methylisoxazol-4-yl)-6-(morpholine-4-carbonyl)-9H-carbazole-4-carboxamide], the IC50 was < 500 nM. `Cc1noc(C)c1-c1cc(C(N)=O)c2c3cc(C(=O)N4CCC(F)C4)ccc3n(Cc3ccc(Cl)cc3)c2c1` (stereo not drawn) [Example 80] was tested, and the IC50 was < 50 nM. In the case of `Cc1noc(C)c1-c1cc(C(N)=O)c2c(c1)[nH]c1ccc(C(=O)N3C[C@@H](C)O[C@@H](C)C3)cc12` [Example 25, 2-(3,5-dimethyl-4-isoxazolyl)-6-((cis-2,6-dimethyl-4-morpholinyl)carbonyl)-9H-carbazole-4-carboxamide], the IC50 is reported as < 500 nM. `Cc1noc(C)c1-c1cc(C(N)=O)c2c3cc(N4CCCOC4=O)ccc3n(Cc3ccccc3)c2c1` [Example 156, 9-benzyl-2-(3,5-dimethyl-4-isoxazolyl)-6-(2-oxo-1,3-oxazinan-3-yl)-9H-carbazole-4-carboxamide] was tested, and the IC50 was < 50 nM. For `Cc1noc(C)c1-c1ccc2c3cc(C(=O)N4CC(C)OC(C)C4)ccc3n(CC(C)C)c2c1` (stereo not drawn) [Example 4], the IC50 was < 500 nM. For `CNC(=O)c1cc(-c2c(C)noc2C)cc2c1c1cc(C(=O)N3CC(F)(F)C3)ccc1n2Cc1ccc(Cl)cc1` [Example 100, 9-(4-chlorobenzyl)-6-(3,3-difluoroazetidine-1-carbonyl)-2-(3,5-dimethylisoxazol-4-yl)-N-methyl-9H-carbazole-4-carboxamide], the IC50 was < 500 nM. For `Cc1noc(C)c1-c1ccc2c3cc(C(=O)N4CC(C)OC(C)C4)ccc3n(Cc3cccc(Cl)c3)c2c1` (stereo not drawn) [Example 13], the IC50 was < 500 nM. For `CCNC(=O)c1cc(-c2c(C)noc2C)cc2[nH]c3ccc(N4CCCOC4=O)cc3c12` [Example 154, 2-(3,5-dimethyl-4-isoxazolyl)-N-ethyl-6-(2-oxo-1,3-oxazinan-3-yl)-9H-carbazole-4-carboxamide], the IC50 was < 7500 nM. With `Cc1noc(C)c1-c1cc(C(N)=O)c2c3cc(C(=O)N4CCC(F)C4)ccc3n(C(C)c3ccccc3)c2c1` (stereo not drawn) [Example 84] the IC50 was < 50 nM. For `CC(=O)N(C)c1ccc2c(c1)c1c(C(N)=O)cc(-c3c(C)noc3C)cc1n2Cc1ccccc1` [Example 131, 9-benzyl-2-(3,5-dimethylisoxazol-4-yl)-6-(N-methylacetamido)-9H-carbazole-4-carboxamide], the IC50 was < 50 nM. For `Cc1noc(C)c1-c1cc(C(N)=O)c2c3ccc(C(C)(C)O)cc3n(C(c3ccc(F)cc3)C3CCOCC3)c2c1` (single isomer, unassigned) [Example 220, 2-(Dimethyl-1,2-oxazol-4-yl)-9-[(4-fluorophenyl)(oxan-4-yl)methyl]-7-(2-hydroxypropan-2-yl)-9H-carbazole-4-carboxamide], the IC50 was < 50 nM. For `Cc1noc(C)c1-c1cc(C(N)=O)c2c3cc(C(=O)N4CC(C)OC(C)C4)ccc3n(Cc3ccc(Cl)cc3)c2c1` (stereo not drawn) [Example 35], the IC50 was < 50 nM. For `COc1ccc2c(c1)c1c(C(N)=O)cc(-c3c(C)noc3C)cc1n2C(C)c1ccccc1` (single isomer, unassigned) [Example 180, 2-(3,5-dimethyl-4-isoxazolyl)-6-methoxy-9-(1-phenylethyl)-9H-carbazole-4-carboxamide], the IC50 was < 50 nM. For `Cc1noc(C)c1-c1cc(C#N)c2c3ccc(C(N)=O)cc3n(C(c3ccccc3)c3ccccc3)c2c1` [Example 194, 5-Cyano-7-(3,5-dimethyl-4-isoxazolyl)-9-(diphenylmethyl)-9H-carbazole-2-carboxamide], the IC50 was < 50 nM. In the case of `Cc1noc(C)c1-c1cc(C(N)=O)c2c3cc(N4CCCS4(=O)=O)ccc3n(Cc3ccc(F)cc3)c2c1` [Example 174, 2-(3,5-dimethyl-4-isoxazolyl)-6-(1,1-dioxido-2-isothiazolidinyl)-9-(4-fluorobenzyl)-9H-carbazole-4-carboxamide], the IC50 is reported as < 50 nM. `CNC(=O)c1cc(-c2c(C)noc2C)cc2c1c1cc(NC)ccc1n2Cc1ccccc1` [Example 133, 9-benzyl-2-(3,5-dimethyl-4-isoxazolyl)-N-methyl-6-(methylamino)-9H-carbazole-4-carboxamide] was tested, and the IC50 was < 50 nM. In the case of `Cc1noc(C)c1-c1cc(C(N)=O)c2c3ccc(C(C)(C)O)c(F)c3n(C(c3ccc(F)cc3)C3CCOCC3)c2c1` (single isomer, unassigned) [Example 223, 2-(Dimethyl-1,2-oxazol-4-yl)-8-fluoro-9-[(4-fluorophenyl)(oxan-4-yl)methyl]-7-(2-hydroxypropan-2-yl)-9H-carbazole-4-carboxamide], the IC50 is reported as < 50 nM. For `Cc1noc(C)c1-c1cc(C(N)=O)c2c3ccc(C(C)C)cc3n([C@H](c3ccccc3)C3CCOCC3)c2c1` [Example 229, 2-(Dimethyl-1,2-oxazol-4-yl)-9-[(S)-oxan-4-yl(phenyl)methyl]-7-(propan-2-yl)-9H-carbazole-4-carboxamide], the IC50 was < 50 nM. For `Cc1noc(C)c1-c1cc(C(N)=O)c2c(c1)[nH]c1ccc(N3CCCOC3=O)cc12` [Example 150, 2-(3,5-dimethyl-4-isoxazolyl)-6-(2-oxo-1,3-oxazinan-3-yl)-9H-carbazole-4-carboxamide], the IC50 was < 500 nM. For `Cc1noc(C)c1-c1cc(C(N)=O)c2c3ccc(C(C)(C)O)cc3n(C(c3ccccc3)C3CCOCC3)c2c1` (single isomer, unassigned) [Example 198], the IC50 was < 50 nM. In the case of `Cc1noc(C)c1-c1cc(C(N)=O)c2c3cc(C(=O)N4CC(F)C4)ccc3n(Cc3ccc(Cl)c(F)c3)c2c1` [Example 86], the IC50 is reported as < 50 nM. In the case of `CNC(=O)c1cc(-c2c(C)noc2C)cc2c1c1cc(C(=O)N3C[C@@H](C)O[C@@H](C)C3)ccc1n2Cc1ccccc1` [Example 117, 9-benzyl-2-(3,5-dimethylisoxazol-4-yl)-6-(cis-2,6-dimethylmorpholine-4-carbonyl)-N-methyl-9H-carbazole-4-carboxamide], the IC50 is reported as < 50 nM. With `CNC(=O)c1cc(-c2c(C)noc2C)cc2c1c1cc(C(=O)N3CC(F)C3)ccc1n2Cc1ccc(F)cc1F` [Example 106] the IC50 was < 500 nM. With `CNC(=O)c1cc(-c2c(C)noc2C)cc2c1c1cc(N3CCCOC3=O)ccc1n2Cc1ccccc1` [Example 169, 9-benzyl-2-(3,5-dimethyl-4-isoxazolyl)-N-methyl-6-(2-oxo-1,3-oxazinan-3-yl)-9H-carbazole-4-carboxamide] the IC50 was < 50 nM. `COC(=O)Nc1ccc2c(c1)c1c(C(N)=O)cc(-c3c(C)noc3C)cc1n2Cc1ccccc1` [Example 144, methyl (9-benzyl-5-carbamoyl-7-(3,5-dimethyl-4-isoxazolyl)-9H-carbazol-3-yl)carbamate] was tested, and the IC50 was < 50 nM. `CNC(=O)Nc1ccc2c(c1)c1c(C(N)=O)cc(-c3c(C)noc3C)cc1n2Cc1ccccc1` [Example 148, 9-benzyl-2-(3,5-dimethyl-4-isoxazolyl)-6-((methylcarbamoyl)amino)-9H-carbazole-4-carboxamide] was tested, and the IC50 was < 50 nM. For `Cc1noc(C)c1-c1cc(C(N)=O)c2c3cc(C(=O)N4CC(C)OC(C)C4)ccc3n(Cc3ccccc3F)c2c1` (stereo not drawn) [Example 31], the IC50 was < 50 nM.
